Assay results from US5001058A (Bristol-Myers Company, priority 1989, dated 1991).
Converted amounts (≈) assume the structure as drawn. Where two headings read alike, the source gives them in different places.

Legend:
[1] = system: Staphylococcus aureus 209P; assay: Antimicrobial activity, two-fold serial dilution in agar media; format: cell-based; conditions: Nutrient agar
[2] = system: Staphylococcus aureus Smith; assay: as above; format: cell-based; conditions: Nutrient agar
[3] = system: Staphylococcus aureus A20234; assay: as above; format: cell-based; conditions: Nutrient agar
[4] = system: Staphylococcus epidermidis D153; assay: as above; format: cell-based; conditions: Nutrient agar
[5] = system: Streptococcus pyogenes A20201; assay: as above; format: cell-based; conditions: Nutrient agar
[6] = system: Micrococcus luteus PCI 1001; assay: as above; format: cell-based; conditions: PCI1001, Nutrient agar
[7] = system: Bacillus subtilis PCI 219; assay: as above; format: cell-based; conditions: PCI219, Nutrient agar
[8] = system: Preopionibacterium acnes A21933; assay: as above; format: cell-based; conditions: Gifu anaerobic medium agar
[9] = system: B16-F10 (murine melanoma) cells; assay: In vitro cytotoxicity, neutral red staining; format: cell-based; conditions: Mus musculus; B16-F10, 72 hours, 37° C.
[10] = system: Moser (human colorectal carcinoma) cells; assay: In vitro cytotoxicity, neutral red staining; format: cell-based
[11] = system: HCT-116 (human colon carcinoma) cells; assay: In vitro cytotoxicity, neutral red staining; format: cell-based; conditions: HCT-116, 72 hours, 37° C.
[12] = system: DNA synthesis in L1210 leukemia cells; assay: Inhibition of DNA synthesis in L1210 leukemia cells (labelled precursor incorporation); format: cell-based, murine; conditions: Mus musculus, 3H-thymidine, 15 min with test material, then 60 min
[13] = system: RNA synthesis in L1210 leukemia cells; assay: Inhibition of RNA synthesis in L1210 leukemia cells (labelled precursor incorporation); format: cell-based, murine; conditions: Mus musculus, 14C-uridine, 15 min with test material, then 60 min
[14] = system: Protein synthesis in L1210 leukemia cells; assay: Inhibition of protein synthesis in L1210 leukemia cells (labelled precursor incorporation); format: cell-based, murine; conditions: Mus musculus, 3H-leucine, 15 min with test material, then 60 min
[15] = Solubility; format: physicochemical
[16] = system: gram-positive bacteria; assay: Antimicrobial activity, two-fold serial dilution in agar media (summary); format: cell-based; conditions: in words
[17] = system: gram-negative bacteria; assay: as above; format: cell-based; conditions: in words
[18] = system: anaerobic bacteria; assay: as above; format: cell-based; conditions: in words
[19] = system: Yeast and fungi; assay: as above; format: cell-based; conditions: in words
[20] = system: murine and human tumor cells; assay: In vitro cytotoxicity against tumor cells (summary); format: cell-based
[21] = system: macromolecule (DNA, RNA and protein) synthesis in L1210 murine leukemia cells; assay: Inhibitory effects on macromolecule (DNA, RNA and protein) synthesis (summary); format: cell-based; conditions: in words
[22] = system: P388 leukemia
[23] = system: Streptococcus faecalis A9612; assay: microbe, parasite or virus in culture; conditions: Enterococcus faecalis
[24] = system: Escherichia coli NIHJ; assay: microbe, parasite or virus in culture
[25] = system: Klebsiella pneumoniae D11; assay: microbe, parasite or virus in culture
[26] = system: Pseudomonas aeruginosa A9930; assay: microbe, parasite or virus in culture
[27] = system: Proteus vulgalis A9436; assay: microbe, parasite or virus in culture
[28] = system: Proteus mirabilis A9554; assay: microbe, parasite or virus in culture
[29] = system: Bacteroides fragilis A22035; assay: microbe, parasite or virus in culture
[30] = system: Clostridium difficile A21675; assay: microbe, parasite or virus in culture; conditions: Clostridioides difficile
[31] = system: Clostridium perfringens A9635; assay: microbe, parasite or virus in culture
[32] = system: Candida albicans IAM 4888; assay: microbe, parasite or virus in culture; conditions: IAM4888
[33] = system: Cryptococcus neoformans D49; assay: microbe, parasite or virus in culture
[34] = system: Aspergillus fumigatus IAM 2530; assay: microbe, parasite or virus in culture; conditions: IAM2530
[35] = system: Trichophyton mentagrophytes D155; assay: microbe, parasite or virus in culture
[36] = in words, literature; cited from earlier work

**Q.** For `Cc1cc2c(c3oc(C(O)(CO)C4CO4)cc(=O)c13)C(=O)c1c(O)cccc1C2=O` (stereo not shown) [BU-3839T], which MIC [1] is on record?
**A.** 0.05 µg/mL (≈ 0.122 µM)

**Q.** And the MIC [2]?
**A.** 0.05 µg/mL (≈ 0.122 µM)

**Q.** And the MIC [3]?
**A.** 0.05 µg/mL (≈ 0.122 µM)

**Q.** And the MIC [4]?
**A.** 0.1 µg/mL (≈ 0.245 µM)

**Q.** And the MIC [5]?
**A.** 0.1 µg/mL (≈ 0.245 µM)

**Q.** What about the MIC [6] of the same compound?
**A.** 0.025 µg/mL (≈ 0.0612 µM)

**Q.** And the MIC [7]?
**A.** 0.05 µg/mL (≈ 0.122 µM)

**Q.** And the MIC [8]?
**A.** 0.8 µg/mL (≈ 1.96 µM)

**Q.** What about the IC50 [9] of the same compound?
**A.** 0.0009 µg/mL (≈ 0.0022 µM)

**Q.** What about the IC50 ([10]; Moser, 72 hours, 37° C., read-out: IC50) of the same compound?
**A.** 0.0046 µg/mL (≈ 0.0113 µM)

**Q.** And the IC50 [11]?
**A.** 0.0026 µg/mL (≈ 0.00637 µM)

**Q.** And the IC50 [12]?
**A.** 0.013 µg/mL (≈ 0.0318 µM)

**Q.** And the IC50 [13]?
**A.** 0.029 µg/mL (≈ 0.071 µM)

**Q.** And the IC50 [14]?
**A.** 0.039 µg/mL (≈ 0.0955 µM)

**Q.** What about the Solubility ([15]; N,N-dimethylformamide) of the same compound?
**A.** soluble

**Q.** And the Solubility ([15]; alkaline water)?
**A.** slightly soluble

**Q.** What about the Solubility ([15]; chloroform) of the same compound?
**A.** slightly soluble

**Q.** What about the Solubility ([15]; dimethyl sulfoxide) of the same compound?
**A.** soluble

**Q.** What about the Solubility ([15]; methylene chloride) of the same compound?
**A.** slightly soluble

**Q.** And the Solubility ([15]; other organic solvents)?
**A.** almost insoluble

**Q.** What about the Solubility ([15]; water) of the same compound?
**A.** almost insoluble

**Q.** And the “Inhibitory activity against gram-positive bacteria” value [16]?
**A.** remarkable inhibitory activity

**Q.** What about the “Activity against gram-negative bacteria” value [17] of the same compound?
**A.** relatively weak activity

**Q.** And the “Activity against anaerobic bacteria” value [18]?
**A.** relatively weak activity

**Q.** And the “Susceptibility of yeast and fungi” value [19]?
**A.** not susceptible

**Q.** And the “Cytotoxicity superior to mitomycin C in terms of IC50 value” ([20]; approximately, ratio to mitomycin C)?
**A.** 300-600 times

**Q.** What about the “Cytotoxicity against tumor cells” value ([20]; in words) of the same compound?
**A.** quite potent

**Q.** What about the “Inhibition of macromolecule synthesis” value [21] of the same compound?
**A.** inhibited DNA, RNA and protein synthesis non-specifically

**Q.** What about the “Body weight change on day 4” value ([22]; 0.008 mg/kg/day, QD × 3, ip) of the same compound?
**A.** +1.0 g

**Q.** And the “MST (median survival time)” value ([22]; 0.008 mg/kg/day, QD × 3, ip)?
**A.** 11.0 days

**Q.** And the T/C ([22]; 0.008 mg/kg/day, QD × 3, ip, T/C ≥ […] significant)?
**A.** 110%

**Q.** What about the “MST (median survival time)” value ([22]; 0.5 mg/kg/day, QD × 3, ip) of the same compound?
**A.** 14.5 days

**Q.** What about the “MST (median survival time)” value ([22]; 1 mg/kg/day, QD × 3, ip) of the same compound?
**A.** 7.0 days

**Q.** And the “maximum T/C value” ([22]; P388 leukemia, ip, QD×3)?
**A.** 145%

**Q.** What about the “Chemotherapeutic activity against P388 leukemia” value ([22]; in words) of the same compound?
**A.** relatively broad and moderate chemotherapeutic activity

**Q.** What about the MIC [23] of the same compound?
**A.** 0.4 µg/mL (≈ 0.98 µM)

**Q.** What about the MIC [24] of the same compound?
**A.** > 50 µg/mL

**Q.** What about the MIC [25] of the same compound?
**A.** 6.3 µg/mL (≈ 15.4 µM)

**Q.** And the MIC [26]?
**A.** > 50 µg/mL

**Q.** What about the MIC [27] of the same compound?
**A.** 6.3 µg/mL (≈ 15.4 µM)

**Q.** And the MIC [28]?
**A.** > 50 µg/mL

**Q.** What about the MIC [29] of the same compound?
**A.** 0.1 µg/mL (≈ 0.245 µM)

**Q.** And the MIC [30]?
**A.** 0.4 µg/mL (≈ 0.98 µM)

**Q.** And the MIC [31]?
**A.** 0.4 µg/mL (≈ 0.98 µM)

**Q.** What about the MIC [32] of the same compound?
**A.** > 50 µg/mL

**Q.** What about the MIC [33] of the same compound?
**A.** > 50 µg/mL

**Q.** And the MIC [34]?
**A.** > 50 µg/mL

**Q.** What about the MIC [35] of the same compound?
**A.** > 50 µg/mL

**Q.** With `CCC(C)c1cc(=O)c2c(CC(=O)O)cc3c(c2o1)C(=O)c1c(O)cccc1C3=O` (stereo not shown) [SS-43405D] as the compound, how does the Antibacterial activity [36] read?
**A.** antibacterial activity

**Q.** For `Cc1cc2c(c3oc(C4(C5CO5)CO4)cc(=O)c13)C(=O)c1c(O)cccc1C2=O` (stereo not shown) [SF-2330], which Antibacterial activity [36] is on record?
**A.** antibacterial activity

**Q.** For `CO[C@@]12[C@H](COC(N)=O)C3=C(C(=O)C(C)=C(N)C3=O)N1C[C@@H]1N[C@@H]12` [Mitomycin C, reference compound], which IC50 ([10]; 72 h) is on record?
**A.** 1.2 µg/mL (≈ 3.59 µM)

**Q.** What about the “Inhibition of macromolecule synthesis” value [21] of the same compound?
**A.** specific inhibition of DNA synthesis
